Reference: patent publication US7084163B2, “Heterocyclic carboxamides and their use as fungicides” (Bayer Cropscience S.A., priority 2001, dated 2006)

What was measured:
[1] = tested on: Erisyphe graminis f. sp. tritici; test: In vivo test on Erisyphe graminis f. sp. tritici (powdery mildew of wheat), preventive spray; settings: Triticum aestivum; dose of 500 g/ha; wheat plants (Audace variety); contaminated 24 hours after treatment; grading 7 to 14 days after contamination vs control plants; read-out: good (at least 50%) or total protection
Procedure: An aqueous suspension, at a concentration of 1.5%, of the active material tested is obtained by grinding it finely in a formulation of concentrated suspension type. This aqueous suspension is then diluted in water so as to obtain the desired active material concentration. Wheat plants (Audace variety) in starter cups, sown on 50/50 peat soil-pozzulana substrate and grown at 12° C., are treated at the 1-leaf stage (10 cm tall) by spraying with the aqueous suspension described above. Plants, used as controls, are treated with an aqueous solution not containing the active material. After 24 hours, the plants are contaminated by dusting them with Erisyphe graminis f. sp. tritici spores, the dusting being carried out using diseased plants.

Drechslera teres = test: In vivo test on Drechslera teres (barley net blotch), preventive spray; settings: Pyrenophora teres, 288 h; dose of 500 g/ha; barley plants (Express variety); contaminated 24 hours after treatment; grading 12 days after contamination vs control plants; read-out: good (at least 50%) protection
Procedure: (§1) An aqueous suspension, at a concentration of 1.5%, of the active material. tested is obtained by grinding it finely in a formulation of concentrated suspension type. This aqueous suspension is then diluted in water so as to obtain the desired active material concentration. Barley plants (Express variety) in starter cups, sown on a 50/50 peat soil-pozzolana substrate and grown at 12° C., are treated at the 1-leaf stage (10 cm tall) by spraying with the aqueous suspension described above. Plants, used as controls, are treated with an aqueous solution not containing the active material.
After 24 hours, the plants are contaminated by spraying them with an aqueous suspension of Dreschslera teres spores (12,000 spores per mL). The spores are collected from a 12-day-old culture. The contaminated wheat plants are incubated for 24 hours at about 20° C. and at 100% relative humidity, and then for 12 days at 80% relative humidity.
Grading is carried out 12 days after the contamination, in comparison with the control plants. Under these conditions, good (at least 50%) protection is observed, at a dose of 500 g/ha, with the compounds described as example: 9, 13, 14, 15, 18, 20, 21, 22, 24, 26, 27, 30, 31, 32, 33, 34, 35, 36, 37, 41, 43, 45, 47, 49, 62, 69, 70, 72.

Rhynchosporium secalis = test: In vivo test on Rhynchosporium secalis (barley leaf scald), preventive spray; settings: dose of 500 g/ha; barley plants (Express or Barrack variety); contaminated 24 hours after treatment; grading 12/14 days after contamination vs control plants
Procedure: as §1, with “the active material tested is” for “the active material. tested is”, “plants (Express or Barrack variety) in” for “plants (Express variety) in”
After 24 hours, the plants are contaminated by spraying them with an aqueous suspension of Rhynchosporium secalis spores (800,000 spores per mL). The contaminated wheat plants are incubated for 48 hours at about 20° C. and at 100% relative humidity, and then for 12/14 days at 80% relative humidity.
Grading is carried out 12/14 days after the contamination, in comparison with the control plants. Under these conditions, good (at least 50%) protection is observed, at a dose of 500 g/ha, with the following compound described as example: 32.

Septoria tritici = test: In vivo test on Septoria tritici (leaf spot of wheat), preventive spray; settings: Zymoseptoria tritici; dose of 500 g/ha; wheat plants (Scipion variety); contaminated 24 hours after treatment; grading 15 to 20 days after contamination vs control plants; read-out: good (at least 50%) protection
Procedure: as §1, with “the active material tested is” for “the active material. tested is”, “material concentration. Wheat plants (Scipion” for “material concentration. Barley plants (Express”, “Wheat plants (Scipion variety) in” for “Barley plants (Express variety) in”
After 24 hours, the plants are contaminated by spraying them with an aqueous suspension of Septoria tritici spores (500,000 spores per mL). The spores are collected from a 15-day-old culture and are suspended in a nutrient solution composed of: • 1.5 g/L of gelatine • 0.5 g/L of sodium oleate • 24 g/L of PDB
The contaminated wheat plants are incubated for 72 hours at about 20° C. and at 100% relative humidity, and then for 15 days at 80% relative humidity.

Puccinia recondita = test: In vivo test on Puccinia recondita (wheat brown rust), preventive spray; settings: 240 h, dose of 500 g/ha, wheat plants (Scipion variety), contaminated 24 hours after treatment, grading 10 days after contamination vs control plants, read-out: good (at least 50%) protection
Procedure: An aqueous suspension, at a concentration of 1.5%, of the active material tested is obtained by grinding it finely in a formulation of concentrated suspension type, This aqueous suspension is then diluted in water so as to obtain the desired active material concentration. Wheat plants (Scipion variety) in starter cups, sown on a 50/50 peat soil-pozzolana substrate and grown at 12° C., are treated at the 1-leaf stage (10 cm tall) by spraying with the aqueous suspension described above. Plants, used as controls, are treated with an aqueous solution not containing the active material.
After 24 hours, the plants are contaminated by spraying them with an aqueous suspension of Puccinia recondita spores (150,000 spores per mL). The contaminated wheat plants are incubated for 24 hours at about 20° C. and at 100% relative humidity, and then for 10 days at 70% relative humidity.
Grading is carried out 10 days after the contamination, in comparison with the control plants. Under these conditions, good (at least 50%) protection is observed, at a dose of 500 g/ha, with the following compounds described as example: 6, 10, 11, 12, 13, 14, 15, 28, 29, 30, 31, 34, 37, 42, 45, 46, 50, 51, 52, 62, 72.

melting point	SMILES	pest or weed control at 500 g/ha [1]	pest or weed control at 500 g/ha (Drechslera teres)	good (at least 50%) protection (Rhynchosporium secalis)	pest or weed control at 500 g/ha (Septoria tritici)	pest or weed control at 500 g/ha (Puccinia recondita)
	Nc1noc(C(=O)Nc2ccc(Oc3ccc(C(F)(F)F)cc3)cc2)c1O [compound 32, 3-Amino4-hydroxy-N-para-[4-(trifluoromethyl)phenoxy]phenylisoxazole-5-carboxamide]	≥ 50%	≥ 50%	at least 50%	≥ 50%	
	CCOC(=O)c1c(O)c(C(=O)Nc2ccc(Oc3ccc(C(F)(F)F)cc3)cc2)cn1C [compound 15, 1-methyl-2-ethoxycarbonyl-3-hydroxy-1H-N-para-[4-(trifluoromethyl)phenoxy]phenyl-pyrrole-4-carboxamide]	≥ 50%	≥ 50%		≥ 50%	≥ 50%
	COc1c(C(N)=O)cncc1C(=O)Nc1ccc(Oc2ccc(C(F)(F)F)c(Cl)c2)cc1 [compound 50, 5-aminocarbonyl-4-methoxy-N-para-[3-chloro-4-(trifluoromethyl)phenoxy]phenyl nicotinamide]				≥ 50%	≥ 50%
	CCCCOc1ccc(NC(=O)c2c(O)c(N)cn2C)cc1 [compound 9, 1-Methyl-4-amino-3-hydroxy-1H-N-(4-butoxy-phenyl)pyrrole-2-carboxamide]		≥ 50%		≥ 50%	
	COc1c(C(=O)Nc2ccc(Oc3ccc(C(F)(F)F)cc3)cc2)cn(C)c1C(=O)O [compound 13, 1-methyl-2-hydroxycarbonyl-3-methoxy-1H-N-para-[4-(trifluoromethyl)phyenoxy]phenyl-pyrrole-4-carboxamide]	≥ 50%	≥ 50%			≥ 50%
	Cc1nc(C)c(-n2cccc2)c(O)c1C(=O)Nc1ccc(OC(F)(F)C(F)F)cc1 [compound 55, 2,6-dimethyl-5-pyrrol-1-yl-4-hydroxy-N-para-(1,1,2,2 tetrafluoroethoxy)phenyl nicotinamide]	≥ 50%				
	COC(=O)c1cncc(C(=O)Nc2ccc(Oc3ccc(C(F)(F)F)c(Cl)c3)cc2)c1OC [compound 49, 5-methoxycarbonyl-4-methoxy-N-para-[3-chloro-4-(trifluoromethyl)phenoxy]phenyl nicotinamide]	≥ 50%	≥ 50%		≥ 50%	
	C=CCOC(=O)Nc1cn(C)c(C(=O)Nc2ccc(Oc3ccc(C(F)(F)F)cc3)cc2)c1OC [compound 5, 1-Methyl-4-[(allyloxycarbonyl)amino]-3-methoxy-1H—N-para-[4-(trifluoromethyl)phenoxy]phenyl-pyrrole-2-carboxamide]	≥ 50%				
203 to 204 °C	CCCCOc1ccc(NC(=O)c2occc(=O)c2O)cc1 [compound 59, N-(4-Butyloxy-phenyl)-2-(3-hydroxy-γ-pyranone)-carboxamide]	≥ 50%			≥ 50%	
	COC(=O)c1onc(C(=O)Nc2ccc(Oc3ccc(C(F)(F)F)cc3)cc2)c1OC [compound 39]				≥ 50%	
	CC(C)N1CC(C(=O)Nc2ccc(Oc3ccc(C(F)(F)F)cc3)cc2)=C(O)C1=O [compound 73, N-(4-(4-Trifluormethyl)phenoxy)phenyl-[(1-isopropyl-4-hydroxy-5-dioxo-2,5-dihydro-1H)-pyrrol]-3-carboxamide]	≥ 50%				
	CC(C)N1CC(C(=O)Nc2ccc(Oc3ccccc3)cc2)=C(O)C1=O [compound 72, N-4-(phenoxy)phenyl-(1-N-isopropyl-4-hydroxy-5-dioxo-2,5-dihydro-1H)-pyrrol-3-carboxamide]		≥ 50%		≥ 50%	≥ 50%
	CCOC(=O)c1c(OC)c(C(=O)Nc2ccc(Oc3ccc(C(F)(F)F)cc3)cc2)cn1C [compound 12, 1-methyl-2-ethoxycarbonyl-3-methoxy-1H-N-para-[4-(trifluoromethyl)phenoxy]phenyl-pyrrole-4-carboxamide]	≥ 50%				≥ 50%
	COc1c(C(=O)Nc2ccc(Oc3ccc(C(F)(F)F)cc3)cc2)cn(C)c1N [compound 14, 1-methyl-2-amino-3-methoxy-1H-N-para-[4-(trifluoromethyl)phenoxy]phenyl-pyrrole-4-carboxamide]	≥ 50%	≥ 50%			≥ 50%
	COC(=O)Nc1noc(C(=O)Nc2ccc(Oc3ccc(C(F)(F)F)cc3)cc2)c1OC [compound 28]	≥ 50%				≥ 50%
	Nc1cc(C(=O)Nc2ccc(Oc3ccc(C(F)(F)F)cc3)cc2)ns1 [compound 42, 5-Amino-N-para-[4-(trifluoromethyl)phenoxy]phenyl-isothiazole-3-carboxamide]	≥ 50%			≥ 50%	≥ 50%
	Cn1nc(C(=O)Nc2ccc(Oc3cccc(C(F)(F)F)c3)cc2)c(O)c1N [compound 44, 1-Methyl-4-hydroxy-5-amino-N-para-[3-(trifluoromethyl)phenoxy]phenyl pyrazole-3-carboxamide]	≥ 50%				
	Nc1nccc(C(=O)Nc2ccc(Oc3ccc(C(F)(F)F)cc3)cc2)c1O [compound 19, [4-(Trifluoromethyl)phenoxy]anilino-(2-amino-3-hydroxy)pyridyl-4-carboxamide]	≥ 50%				
	Nc1cncc(C(=O)Nc2ccc(Oc3cccc(C(F)(F)F)c3)cc2)c1O [compound 45, 5-amino-4-hydroxy-N-para-[3-(trifluoromethyl)phenoxy]phenyl nicotinamide]	≥ 50%	≥ 50%		≥ 50%	≥ 50%
